Assay results published in patent US20050014751A1, “Use of n-acyl homoserine lactones for the treatment of insulitis” (priority 2001, published 2005).
Each block holds one molecule with its values, some of them ahead of it.

What was measured:
murine splenocytes = assay: ConA mitogen-stimulated proliferation of murine splenocytes; format: cell-based, BALB/c mice; conditions: ConA 1 μg/ml, 100,000 spleen cells, 1 mM to 0.1 μM
Experimental: The concanavalin A (ConA) cell proliferation assay was used to assess the effect of homoserine lactone (HSL) compounds on T-cell activation and proliferation. Proliferation was assessed by the incorporation of [^3H]-thymidine into DNA. Eight-week-old female BALB/c mice were obtained from Harlan (Bicester, Oxon, UK) and given food and water ad libitum. Splenocyte suspensions were prepared by removing the spleens and placing them into. RPMI 1640 medium. The spleens were forced through 70-μm-pore-size wire gauzes using the plunger from a 5-ml syringe to produce a single cell suspension. The cells were pelleted by centrifugation, and erythrocytes were lysed with 0.017M Tris, 0.144M ammonium chloride buffer, pH 7.2. Leucocytes were washed twice with RPMI 1640 medium with 2% (vol/vol) foetal calf serum (FCS) and resuspended in complete cell culture medium (CTCM) consisting of RPMI 1640 medium with 5% FCS, 2 mM L-glutamine, and 5×10^−5 M 2-mercaptoethanol. […] After the addition of 25 μl of MicroScint-O (Packard) to each well the filters were counted with the Packard TopCount scintillation counter. […]
(§1) In the cell culture assays the number of cells used (mouse splenocytes and human PBMC) was initially optimised to 100,000 cells per well. The optimal dose of ConA of 1 μg/ml used in the cell proliferation assays was determined from ConA titration curves. […]

diabetes in NOD mice = assay: Alleviation of diabetes in NOD mice (incidence of diabetes, Uristix); format: in vivo; conditions: above 6 mMol glucose/l = diabetes
Experimental: The ability of the lead compound (OdDHL) to alleviate diabetes in NOD mice was determined by treating the mice 3 times per week for 4 weeks at 30 mg/kg as above. DMSO and OHHL were used as controls.
Diabetes was diagnosed using Uristix and a level of above 6 mMol glucose/I was taken to indicate the presence of diabetes.

TNF-alpha production = TNF-alpha production from LPS-stimulated human PBMC; format: cell-based
Experimental: Bacterial lipopolysaccharide (LPS) stimulates the production of a variety of cytokines, including TNF-alpha, from human PBMC; these cytokines in turn influence the development of T cells, supporting a T helper 1 conducive milieu. Human PBMC prepared from whole blood by buoyant density centrifugation were resuspended in CTCM. HSL compounds were again tested at similar dilutions as for murine splenocytes in 200 μl of CTCM, containing 5×10^−5 μg/ml LPS Escherichia coli strain 055:B5 (Sigma, Poole, UK) and 100,000 PBMC. Following incubation for 24 h at 37° C. in 5% CO2-air, the cell culture supernatants were collected and tested for TNF-alpha levels by ‘sandwich’ ELISA. Briefly, 96-well Nunc MaxiSorp (Life Technologies, Paisley, UK) plates were coated with 50 μl of a 2 μg/ml solution of mouse anti-human TNF-alpha monoclonal antibody (Pharmingen, UK) in 0.05 M carbonate/bicarbonate buffer, pH 9.6 overnight at 4° C. After washing the plates three times with PBS-Tween, which contained phosphate buffered saline (PBS) with 0.5% (vol/vol) Tween 20 (Sigma, Poole, UK), the plates were blocked with 1% (wt/vol) bovine serum albumin (BSA) (Sigma, Poole, UK) at room temperature for 2 h. […] Following four washes, the bound biotinylated antibody was detected with 50 μl of a 1:1,000 dilution of Streptavidin-peroxidase (Pharmingen, UK). […] The enzyme reaction was stopped with 50 μl of 2.5 M H2SO4 after an incubation of 10 minutes at room temperature and the development was read at 450 nm with a spectrophotometric 96-well plate reader (Dynex). […]
Similar studies were carried out using, as the HSL compounds, N-(12-bromo-3-oxododecanoyl)-L-homoserine lactone (12BrOdDHL) and N-(12-hydroxy-3-oxododecanoyl)-L-homoserine lactone (12hydroxyOdDHL) and the plots for these are shown in FIG. 9. […] The IC50 value for dexamethasone was determined to be 500.
as §1

human PBMC = assay: ConA mitogen-stimulated proliferation of human PBMC; format: cell-based; conditions: ConA 1 μg/ml, 100,000 PBMC
Experimental: Blood specimens were obtained with consent from healthy human volunteers. Human peripheral blood mononuclear cells (PBMC) were isolated from heparinised whole blood by buoyant density centrifugation over Histopaque 1077 (Sigma, Poole, UK) at 600 g for 20 minutes. PBMC harvested from the ‘buffy’ layers were washed twice with RPMI 1640 medium and resuspended in CTCM. HSL compounds were tested at similar dilutions as for murine splenocytes in 200 μl of CTCM, containing 1 μg/ml of ConA and 100,000 PBMC. Human PBMC were incubated for 48 h at 37° C. in 5% CO2-air, followed by pulsing with 0.25 μCi [^3H]-thymidine (see above). After a further incubation of 24 h cells were harvested onto fibreglass filters and then counted in the presence of MicroScint-O with the Packard TopCount.
Concanavalin induced cell proliferation of human peripheral blood mononuclear cells (PBMC) was tracked, as described in I above, by a measurement of counts per minute using the scintillation counter. The inhibitory effect of an HSL compound being tested on cell proliferation was indicated by a reduction in counts per minute. […]
as §1

SMILES: CCCCCC(=O)CC(=O)N[C@H]1CCOC1=O [OOHL, N-(3-oxooctanoyl)-L-homoserine lactone, reference compound]
- inhibition of splenocyte proliferation ([3H]-thymidine cpm, FIG. 6) (murine splenocytes): failed to inhibit proliferation

SMILES: CCCC(=O)CC(=O)N[C@H]1CCOC1=O [OHHL, N-(3-oxohexanoyl)-L-homoserine lactone, reference compound]
- incidence of diabetes (diabetes in NOD mice; Week of Experiment 20, 30 mg/kg 3 times per week for 4 weeks): 7/10
- incidence of diabetes (diabetes in NOD mice; Week of Experiment 30, 30 mg/kg 3 times per week for 4 weeks, week 30 of experiment): 12/20

- IC50 (TNF-alpha production; LPS-stimulated human PBMC, unit from the IC50 definition, read-out: IC50, concentration which inhibits TNF-α secretion by 50%): 500 µM
SMILES: C[C@@H]1C[C@H]2[C@@H]3CCC4=CC(=O)C=C[C@]4(C)[C@@]3(F)[C@@H](O)C[C@]2(C)[C@@]1(O)C(=O)CO [dexamethasone, reference compound]

SMILES: CCCCCCCCCCCC(=O)CC(=O)N[C@H]1CCOC1=O [OtDHL, N-(3-oxotetradecanoyl)-L-homoserine lactone]
- inhibition of proliferation of human PBMC ([3H]-thymidine cpm, FIG. 7) (human PBMC): inhibited proliferation
- inhibition of TNF-α secretion (FIG. 8) (TNF-alpha production; LPS 5×10^−5 μg/ml, 100,000 PBMC, 24 h, ELISA): inhibited the secretion
